The source of these data is patent US20070255357A1, “NASAL DECO[…] MICROBES” (Ondine International, Ltd., priority 2006, published 2007).

Assay [1] relates to MRSA biofilms. Nature of the assay: SEM evaluation of MRSA biofilms after photodisinfection. The class given is cell-based, Methicillin-resistant Staphylococcus aureus. To be noted: about 0.1 wt % methylene blue, about 10 s contact; about 665-675 nm for about 30 seconds, Periowave laser; FIG. 34 vs FIG. 33. Here is the method: Biofilms heavily colonized with one to four layers of MRSA organisms were contacted with a photosensitizing composition comprising methylene blue at a concentration of about 0.1 wt % for about 10 seconds and then illuminated at a wavelength of about 665 nm to about 675 nm for a period from about 30 seconds using the Periowave™ laser. Thereafter, these biofilms and the controlled MRSA biofilms (e.g., no photodisinfection treatment) were incubated overnight in 0.9 wt % saline and then fixed in 10 wt % Formalin for scanning electron microscope (SEM) evaluation.

Assay [2] deals with biofilms of MRSA. Nature of the assay: Photodisinfection of MRSA biofilms in vitro (methylene blue + Periowave laser). The assay is classed as cell-based, Methicillin-resistant Staphylococcus aureus. To be noted: biofilm; for reduction of MRSA: at least 0.02 wt % methylene blue, laser about 665-675 nm for at least 15 seconds (at least 2.25 J/cm^2). An excerpt: (§1) Photodisinfection treatments using methods contemplated by the present invention have been tested against MRSA, Escherichia coli (E. coli), and Enterococcus fecalis (E. fecalis) in vitro and reached high levels of disinfection in within seconds to one minute. Photosensitizing composition comprising of methylene blue at various concentrations ranging from about 0.005 wt % to 0.1 wt % was applied to biofilms of MRSA, E. coli and E. fecalis for about ten seconds. These biofilms were then illuminated by a laser light system at a wavelength of about 665 nm to about 675 nm for a period from about 0 seconds to about 60 seconds (e.g., accumulated energy level of about 0 J/cm^2 to about 9 J/cm^2). The laser light system used was the Periowave™ system which includes a low-intensity laser with power at about 240 mW and the optical probe described in PCT Patent Publication No. WO2006115761.

The test system of assay [3] is biofilms of E. fecalis. Nature of the assay: Photodisinfection of E. fecalis biofilms in vitro (methylene blue + Periowave laser). The class given is cell-based, Enterococcus fecalis. To be noted: biofilm.
Description: as §1

Assay [4] concerns otitis externa. Nature of the assay: Photodisinfection of otitis externa treatment site (Examples V to VII). The class given is in vivo. Here is the method:
A photosensitizing composition comprising of methylene blue at a concentration of about 0.1 wt % is applied to the otitis externa treatment site. Light at a wavelength range from about 650 nm to about 680 nm is applied to the photosensitizing composition located within the otitis externa treatment site for a period from about 6 minutes to about 10 minutes using a laser with power at about 80 mW. The otitis externa was ameliorated.
A photosensitizing composition comprising of methylene blue at a concentration range of from about 0.001 wt % to about 0.1 wt % is applied to the otitis externa treatment site. Light at a wavelength range from about 650 nm to about 680 nm is applied to the photosensitizing composition located within the treatment site for a period from about 1 minute to about 20 minutes using a laser with power at a range from about 50 mW to about 300 mW. The otitis externa was ameliorated.
A photosensitizing composition comprising of toluidine blue at a concentration range of from about 0.001% wt % to about 0.1 wt % is applied to the otitis externa treatment site. Light at a wavelength range from about 620 nm to about 650 nm is applied to the photosensitizing composition located within the otitis externa treatment site for a period from about 1 minute to about 20 minutes using a laser with power at a range from about 50 mW to about 300 mW. The otitis externa was ameliorated.
For Examples V to VII, it was shown that there is a general inverse relationship between (1) the photosensitizer concentration and (2) the photodisinfection treatment time and/or the amount of power required for the light source. For example, higher concentration of photosensitizer requires less treatment time and/or lower light source power. Conversely, lower concentration of photosensitizer requires longer treatment time and/or higher light source power. Also, less treatment time requires higher concentration of photosensitizer and/or higher light source power.

Assay [5] has as its system otitis externa. Nature of the assay: Study on patients suffering otitis externa (photodisinfection). The class given is in vivo, human. Here is the method: A study was conducted on patients suffering otitis externa. During the study, a photosensitizing composition comprising of methylene blue at a concentration of about 0.01 wt % was applied using a cotton swab to the treatment site as shown in FIG. 37. Thereafter and referring to FIGS. 38-39, light at a wavelength range from about 665 nm to about 675 nm was applied to the photosensitizing composition located within the treatment site 64 for a period from about 3 minutes to about 5 minutes (3-5 repetitive one minute cycles) using the Periowave™ laser light system.

The subject of assay [6] is E. coli biofilms. Nature of the assay: SEM evaluation of E. coli biofilms after photodisinfection. The assay is classed as cell-based, Escherichia coli. To be noted: about 0.1 wt % methylene blue, about 10 s contact; about 665-675 nm for about 30 seconds, Periowave laser; FIG. 36 vs FIG. 35. Here is the method:
Biofilms heavily colonized with one to three layers of Escherichia coli (E. coli) organisms were contacted with a photosensitizing composition comprising methylene blue at a concentration of about 0.1 wt % for about 10 seconds and then illuminated at a wavelength of about 665 nm to about 675 nm for a period from about 30 seconds using the Periowave™ laser. Thereafter, these biofilms and the controlled E. coli biofilms (e.g., no photodisinfection treatment) were incubated for three hours in 0.9% saline and then fixed in 10% Formalin for scanning electron microscope (SEM) evaluation.

In assay [7] the test system is biofilms of E. coli. Nature of the assay: Photodisinfection of E. coli biofilms in vitro (methylene blue + Periowave laser). The class given is cell-based, Escherichia coli. To be noted: biofilm; for reduction of E. coli: at least 0.02 wt % methylene blue, laser about 665-675 nm for at least 15 seconds (at least 2.25 J/cm^2).
Description: as §1

The mark [8] stands for this setting: methylene blue about 0.02-0.1 wt % and a low power laser (about 240 mW).

For the compound `CN(C)c1ccc2nc3ccc(=[N+](C)C)cc-3sc2c1` [methylene blue], the “reduction of MRSA in SEM photograph vs controlled biofilm” value in assay [1] is recorded as “substantial reduction of MRSA”. Also, the entries for the “reduction of MRSA” value in assay [2] (about 10 s contact) and in assay [2] were “at least three” and “over 90%”, respectively. Also, the “elimination of MRSA by photodisinfection” value in assay [2] (setting [8]) is on record as “effectively eliminated”. The “reduction of E. fecalis” value in assay [3] (at least 0.02 wt % methylene blue, laser about 665-675 nm for at least 15 seconds (at least 2.25 J/cm^2)) is “over 90%”. Moreover, the “elimination of E. Fecalis by photodisinfection” value in assay [3] (setting [8]) was “effectively eliminated”. The “outcome of otitis externa” value in assay [4] (Example V: about 0.1 wt % methylene blue, about 650-680 nm for about 6-10 minutes, laser about 80 mW) is “ameliorated”; in assay [4] (Example VI: about 0.001-0.1 wt % methylene blue, about 650-680 nm for about 1-20 minutes, laser about 50-300 mW), “ameliorated”; in assay [5] (patients, about 0.01 wt % methylene blue by cotton swab, about 665-675 nm for about 3-5 minutes, Periowave laser, many patients), “ameliorated”. Further, in assay [5] (patients with severe otitis externa, about 2 to 5 additional treatments, same protocol, over about one to two weeks), the “outcome of severe otitis externa” value was “also ameliorated”. Further, the “reduction of E. coli in SEM photograph vs controlled biofilm” value in assay [6] is on record as “substantial reduction of E. coli”. The “reduction of E. coli” value in assay [7] (about 10 s contact) is given as “at least three”; in assay [7] it was “over 90%”. Also, in assay [7] (setting [8]), the “elimination of E. coli by photodisinfection” value is “effectively eliminated”.
As for `Cc1cc2nc3ccc(N(C)C)cc3[s+]c2cc1N.[Cl-]` [toluidine blue], in assay [4] (Example VII: about 0.001-0.1 wt % toluidine blue, about 620-650 nm for about 1-20 minutes, laser about 50-300 mW), the “outcome of otitis externa” value was “ameliorated”.
